# Key:
# GDNF = GDNF expression in brain of MPTP-ablated monkeys (immunohistochemistry, ELISA); format: in vivo, rhesus
# Method: After euthanasia, all monkeys are perfused with saline. The brain is removed, immersed in ice-cold saline for 10 min, and sliced on a monkey brain slicer. Slabs through the head of the caudate and putamen are punched bilaterally with a 1 mm brain punch. These punches are processed for HPLC for determination of catecholamine content. Brain punches are also homogenized in 150:1 buffer I [0.1M tris-buffered saline, pH 8.1, containing 1 mM EDTA, 1% aprotinin, 10 mg/ml leupeptin, 14 mg/ml pepstatin, 4 mM phenylmethylsulfonyl fluoride (PMSF)] for 30 sec in the ice slurry. An equal amount of buffer II (0.1 M tris-buffered saline, pH 8.1, containing 1 mM EDTA, 1% aprotinin, 10 g/ml leupeptin, 14 μg/ml pepstatin, 4 mM PMSF, and 0.5% NP-40) is then added. The tubes are shaken for 2 hours. The supernatant is collected for ELISA and protein measurements. The ELISA reaction was completed in 96-well plate (Dynatech, Chantilly, Va.) according to the ELISA manufacturer's instructions (GDNF Emax ImmunoAssay Systems Kit G3520, Promega, Madison, Wis.). The optical densities are recorded in ELISA plate reader (at 450 nm wave length; Dynatech). […] The concentrations of GDNF are calculated against six-point standard curve and then adjusted to picograms of GDNF per milligram of total protein. The total protein in each tissue lysate is measured using Bio-Rad protein assay kit (Bio-Rad, Richmond, Calif.). […]
# MPTP-ablated monkeys = assay: Parkinsonian clinical rating scale (CRS) in MPTP-ablated monkeys; format: in vivo, rhesus; conditions: diflucan continuously 3-12 mg/kg x day in animal previously treated with Lenti-GDNF
# Method: Twenty young adult rhesus are initially trained 3 days per week until asymptotic performance is achieved on a hand-reach task in which the time to pick up food treats out of recessed wells is measured (M. E. Emborg, et al., J. Comp. Neurol. 401, 253 (1998); J. H. Kordower, Cell Transplant. 4, 155 (1995)). Each experimental day, monkeys receive 10 trials per hand. Once per week, monkeys are also evaluated on a modified parkinsonian clinical rating scale (CRS) to obtain a measurement of baseline performance. All monkeys then receive an injection of 3 mg MPTP-HCl into the right carotid artery, initiating a Parkinsonian state. One week later, monkeys are evaluated on the CRS. Only monkeys displaying severe hemi-Parkinsonism with the classic crooked arm posture and dragging leg on the left side continue in the study.
# On the basis of CRS scores, monkeys are matched into three groups of five monkeys, which receive on that day: lentiviral vector expressing-b-galactosidase (Lenti-βgal) (group 1); Lenti-GDNF plus continuous treatment with diflucan (group 2); or Lenti-GDNF treatment alone (group 3). […]
# One week following lentiviral vector treatment, monkeys begin retesting on the hand-reach task three times per week for 3 weeks per month. […] During the weeks of hand-reach testing, monkeys are also scored once per week on the CRS. […]
structure (smiles),measurement,setting,value
"OC(Cn1cncn1)(Cn1cncn1)c1ccc(F)cc1F [Diflucan, Fluconazole]",GDNF expression,GDNF; diflucan continuously 3-12 mg/kg x day in animal previously treated with Lenti-GDNF,switched off
same,levels of GDNF in the brains,GDNF; diflucan treated animals compared to animals where diflucan is omitted,no significant levels of GDNF
same,therapeutic effect in Parkinson's model monkeys,MPTP-ablated monkeys,no therapeutic effect

# Reference: patent publication US20050260164A1, “Gene regulation with aptamer and modulator complexes for gene therapy” (priority 2002, published 2005)
